For series [1], the system named is IFN-α signaling pathway. As to the kind of experiment: High-Throughput Integrated Transcriptional Screening (HITS), qPCR of IFN-α signature gene set in THP-1 cells. The class given is cell-based, human. To be noted: compound 10 μM, 100 IU/ml IFN-α 4 h, a gene inhibited by more than 50% gets its maximum score, scores added, hit if greater than 50% of maximum. How it is done: The unique gene expression signature of the IFN-α signaling pathway was established in THP-1 cells by comparing the gene profiles of the fully activated IFNα pathway to the basal gene expression. THP-1 cells were stimulated either with 100 IU/ml IFN-α, 100 IU/ml IFN-γ, or 10 ng/ml TNF-α to generate the activated pathway gene signatures.
In one embodiment, the compounds of Table 1 were used to identify different mechanisms of action as identified from primary screening. If a gene is inhibited by more than 50% then it receives its maximum score (all or none type of scoring).
THP-1 cells seeded at 8×10^5 cells/ml were treated with either compound (10 μM final concentration) or vehicle control (0.1% DMSO) for 30 minutes prior to a four hour stimulation with 100 IU/ml IFN-α or PBS. Plates were incubated at 37° C. in a humidified incubator. Cell lysis and RNA isolation were carried out according to the manufacturer's instructions (TurboCapture mRNA Kit, Qiagen Inc.). PCR primer pairs were designed for each of the genes identified through the global gene expression analysis using Primer 3 based method (see below for primer sequences). Each primer was evaluated for the efficient production of a single band of appropriate size in the presence of template RNA and the lack of distinct amplification products in a non-template control. Real time PCR reactions were carried out in SYBR green master mix (Quanta biosciences) on ABI9700 thermocyclers.
We used the house keeping gene, GAPDH, as the normalization control for the IFN-α gene signature set to correct the overall variability in the qPCR based HITS process. The corrected profiles were then normalized to the basal gene expression levels determined by using the vehicle only treatments. We subtracted the vehicle only control gene value from the test compound gene profiles, gene per gene (see FIG. 1).
Background: In qPCR the cycle at which signal appears reflects the starting amount.

In series [2] the test system is freshly isolated monocytes. As to the kind of experiment: Cytotoxicity at the concentration used in the SLE serum monocyte assay. The class given is cell-based, human. Conditions: 1 μm.
In series [3] the test system is IP-10. As to the kind of experiment: IFN-α induced chemokine release in vivo (adenovirus IFN-α5, serum IP-10 ELISA). Also on record: species or system Female NZBW/F1 mice. How it is done:
Freshly isolated monocytes were treated with 500 IU/ml IFN-α with or without indicated compounds for 48 h. Supernatants were collected and MCP-1 and IP-10 levels were analyzed by Searchlight Inc. Percentage inhibition represents inhibition of the upregulation of chemokine induced by IFN-α compared to the vehicle control. Panel A: Effect of compounds on IP-10 secretion. Panel B: Effect of compounds on MCP-1 secretion. Each bar represents the average+/−SEM of three independent experiments. Panel C: IKK2 inhibitor IV blocked IFN-α induced IP-10 protein level in vivo. Female NZBW/F1 mice were treated with either antibody (i.p. injection 30 mg/kg) or IKK2 inhibitor (45 mg/kg BID) as described in materials and methods. Adenovirus-IFN-a (1×10^10 viral particles) was administrated i.v. at time 0. Samples were collected 6 h post-stimulation, IP-10 protein level was measured by ELISA. Data representative of two experiments.
Next, the effect of IKK-2 inhibitor IV in IP-10 and MCP-1 expression was examined in vivo. To induce IP-10 and MCP-1 expression, mice were infected with adenovirus encoding IFN-α5. As a result, IP-10 but not MCP-1 levels were detected in serum (data not shown). […]
Female NZBW/F1 mice (Jackson Laboratories, Bar Harbor, Me.) were housed in pathogen-free conditions with access to food and water. […] Serum levels of IP10 were assessed by ELISA (R&D Systems, Minneapolis, Minn.). […]
In general terms: ELISA stands for enzyme-linked immunosorbent assay.

Molecules are shown by their SMILES.

With `CCC(=O)CCCCC[C@@H]1NC(=O)[C@H]2CCCCN2C(=O)C([C@@H](C)CC)NC(=O)[C@H](Cc2cn(OC)c3ccccc23)NC1=O` (stereo partly drawn) [Compound 2, Apicidin], the “HTS Score” value in series [1] came out at 0.89. Moreover, in series [2], the Cytotoxicity entry is “did not exhibit cytotoxicity”.
With `NC(=O)Nc1sc(-c2ccc(F)cc2)cc1C(N)=O` [Compound 5, IKK-2 Inhibitor IV], the “HTS Score” value in series [1] is given as 0.95. In addition, the “IFN-α induced IP-10 protein level in vivo (in words)” value in series [3] (Female NZBW/F1 mice, 45 mg/kg BID, 6 h post-stimulation, ELISA (FIG. 6C)) is listed as “blocked”. In addition, the “Inhibition of levels of serum IP-10” value in series [3] (mice infected with adenovirus encoding IFN-α5, 6 h post-stimulation, IKK2 inhibitor 45 mg/kg BID, antibody i.p. 30 mg/kg) worked out at 98%. For the same molecule, the Cytotoxicity entry in series [2] is recorded as “did not exhibit cytotoxicity”.

Values taken from patent publication US20100093611A1, “COMPOUNDS AND METHODS FOR TREATING OR PREVENTING AUTOIMMUNE DISEASES” (priority 2007, published 2010).
